Test [1] concerns the target T1, Serine/threonine-protein kinase DCLK1 (Homo sapiens) (UniProt O15075).
T1 sequence (whole entry): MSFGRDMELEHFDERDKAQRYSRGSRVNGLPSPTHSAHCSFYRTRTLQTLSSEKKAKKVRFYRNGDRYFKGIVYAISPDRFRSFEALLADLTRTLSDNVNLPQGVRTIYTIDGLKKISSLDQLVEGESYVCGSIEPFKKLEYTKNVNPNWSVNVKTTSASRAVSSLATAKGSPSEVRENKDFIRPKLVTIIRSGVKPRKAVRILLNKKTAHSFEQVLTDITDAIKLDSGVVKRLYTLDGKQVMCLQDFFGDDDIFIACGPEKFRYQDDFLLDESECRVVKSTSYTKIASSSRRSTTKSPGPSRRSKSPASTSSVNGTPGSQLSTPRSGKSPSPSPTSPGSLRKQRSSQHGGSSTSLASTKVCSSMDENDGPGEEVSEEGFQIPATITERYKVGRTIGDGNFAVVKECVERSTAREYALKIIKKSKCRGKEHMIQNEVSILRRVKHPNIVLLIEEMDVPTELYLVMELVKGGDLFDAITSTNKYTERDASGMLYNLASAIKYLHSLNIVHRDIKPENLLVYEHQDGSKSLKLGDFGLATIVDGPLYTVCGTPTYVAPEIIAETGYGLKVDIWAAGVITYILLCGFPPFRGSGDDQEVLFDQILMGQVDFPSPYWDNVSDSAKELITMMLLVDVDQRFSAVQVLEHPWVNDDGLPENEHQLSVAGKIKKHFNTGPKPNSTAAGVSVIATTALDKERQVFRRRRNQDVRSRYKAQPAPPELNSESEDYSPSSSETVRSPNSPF
As to the kind of experiment: Selectivity interaction (Kinase panel (Z-LYTE Assay)) EUB0001632a DCLK1. The note with it: at 10 µM.

The target in another test is Insulin receptor (Homo sapiens, UniProt P06213). As to the kind of experiment: Selectivity interaction (KinomeScan (DiscoverX)) EUB0000607a INSR. The note with it: at 10 µM.
Test [2] deals with T2, Serine/threonine-protein kinase LATS1 (Homo sapiens) (UniProt O95835).
T2 sequence (whole entry): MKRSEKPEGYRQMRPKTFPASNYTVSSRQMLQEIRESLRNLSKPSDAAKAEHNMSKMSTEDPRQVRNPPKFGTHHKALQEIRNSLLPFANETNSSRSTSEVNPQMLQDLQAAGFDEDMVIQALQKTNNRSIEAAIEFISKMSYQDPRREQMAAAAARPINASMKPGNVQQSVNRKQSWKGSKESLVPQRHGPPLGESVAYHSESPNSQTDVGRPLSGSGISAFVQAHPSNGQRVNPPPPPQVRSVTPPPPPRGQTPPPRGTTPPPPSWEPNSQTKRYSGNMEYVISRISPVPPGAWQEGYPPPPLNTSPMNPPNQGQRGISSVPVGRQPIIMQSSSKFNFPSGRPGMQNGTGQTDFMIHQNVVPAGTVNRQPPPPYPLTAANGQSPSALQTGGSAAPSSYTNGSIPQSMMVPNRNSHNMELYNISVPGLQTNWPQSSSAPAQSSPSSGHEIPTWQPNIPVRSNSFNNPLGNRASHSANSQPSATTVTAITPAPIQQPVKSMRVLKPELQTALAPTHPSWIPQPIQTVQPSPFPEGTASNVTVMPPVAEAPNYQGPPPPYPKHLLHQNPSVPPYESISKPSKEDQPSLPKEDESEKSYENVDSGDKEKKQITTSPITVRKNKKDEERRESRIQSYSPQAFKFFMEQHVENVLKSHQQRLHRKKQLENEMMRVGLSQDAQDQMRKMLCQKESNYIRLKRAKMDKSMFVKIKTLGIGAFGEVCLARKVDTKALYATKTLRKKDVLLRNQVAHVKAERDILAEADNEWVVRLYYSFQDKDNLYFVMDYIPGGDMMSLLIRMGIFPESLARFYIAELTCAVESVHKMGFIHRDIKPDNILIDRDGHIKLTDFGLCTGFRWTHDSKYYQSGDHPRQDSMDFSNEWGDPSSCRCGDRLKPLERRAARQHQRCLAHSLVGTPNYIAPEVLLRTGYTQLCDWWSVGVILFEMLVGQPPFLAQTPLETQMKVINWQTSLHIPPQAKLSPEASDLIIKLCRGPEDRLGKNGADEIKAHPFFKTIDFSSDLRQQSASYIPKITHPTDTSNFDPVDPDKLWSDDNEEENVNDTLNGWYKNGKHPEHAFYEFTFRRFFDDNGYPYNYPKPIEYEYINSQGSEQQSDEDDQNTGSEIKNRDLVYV
Kind of test: Selectivity interaction (KinomeScan (DiscoverX)) EUB0000618a LATS1. The note with it: at 10 µM.

Test [3] addresses T3, Cyclin-dependent kinase 11A (Homo sapiens) (UniProt Q9UQ88).
T3 sequence (whole entry): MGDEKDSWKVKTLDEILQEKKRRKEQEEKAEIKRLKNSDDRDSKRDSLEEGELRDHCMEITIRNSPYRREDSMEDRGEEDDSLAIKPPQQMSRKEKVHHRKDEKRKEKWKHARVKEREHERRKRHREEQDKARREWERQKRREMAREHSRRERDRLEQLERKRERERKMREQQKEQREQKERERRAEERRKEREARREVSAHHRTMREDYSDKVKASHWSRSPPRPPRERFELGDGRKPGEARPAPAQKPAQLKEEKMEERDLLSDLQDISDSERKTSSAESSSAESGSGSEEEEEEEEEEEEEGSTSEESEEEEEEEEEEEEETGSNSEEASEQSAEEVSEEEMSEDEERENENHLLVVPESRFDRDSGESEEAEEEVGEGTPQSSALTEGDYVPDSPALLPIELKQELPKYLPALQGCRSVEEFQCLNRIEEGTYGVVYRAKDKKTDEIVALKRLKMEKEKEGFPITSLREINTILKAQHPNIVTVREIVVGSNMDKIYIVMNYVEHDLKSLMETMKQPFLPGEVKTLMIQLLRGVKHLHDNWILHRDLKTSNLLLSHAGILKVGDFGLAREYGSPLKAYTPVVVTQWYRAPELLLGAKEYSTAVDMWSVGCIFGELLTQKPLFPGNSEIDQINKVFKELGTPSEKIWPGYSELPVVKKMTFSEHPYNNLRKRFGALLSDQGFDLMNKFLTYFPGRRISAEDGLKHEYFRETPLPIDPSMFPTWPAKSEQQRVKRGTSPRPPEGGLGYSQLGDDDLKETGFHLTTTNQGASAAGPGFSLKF
Kind of test: Selectivity interaction (KinomeScan (DiscoverX)) EUB0001079a CDK11A. The note with it: at 1 µM.

Chain of Insulin receptor (P06213 28-758 limits assumed): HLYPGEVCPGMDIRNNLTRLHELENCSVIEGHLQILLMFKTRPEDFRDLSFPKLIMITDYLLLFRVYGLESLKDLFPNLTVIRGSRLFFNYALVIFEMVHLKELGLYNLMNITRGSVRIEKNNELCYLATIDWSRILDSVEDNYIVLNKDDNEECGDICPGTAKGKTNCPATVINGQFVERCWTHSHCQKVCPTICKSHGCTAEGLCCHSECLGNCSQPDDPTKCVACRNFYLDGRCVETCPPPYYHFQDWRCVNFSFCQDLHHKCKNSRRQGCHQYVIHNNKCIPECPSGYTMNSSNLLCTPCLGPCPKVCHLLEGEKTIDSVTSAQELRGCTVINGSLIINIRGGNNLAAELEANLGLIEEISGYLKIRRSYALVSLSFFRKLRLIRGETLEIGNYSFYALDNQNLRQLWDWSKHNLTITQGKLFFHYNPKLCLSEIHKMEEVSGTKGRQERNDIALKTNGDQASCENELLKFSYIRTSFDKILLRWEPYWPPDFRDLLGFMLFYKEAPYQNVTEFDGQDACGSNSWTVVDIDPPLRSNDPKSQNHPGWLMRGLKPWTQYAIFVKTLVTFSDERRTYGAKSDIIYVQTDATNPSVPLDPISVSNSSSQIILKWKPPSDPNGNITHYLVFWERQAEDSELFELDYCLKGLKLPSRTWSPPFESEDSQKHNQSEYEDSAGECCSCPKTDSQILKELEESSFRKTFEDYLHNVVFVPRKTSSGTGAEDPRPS
Chain of Insulin receptor (P06213 763-1382 limits assumed): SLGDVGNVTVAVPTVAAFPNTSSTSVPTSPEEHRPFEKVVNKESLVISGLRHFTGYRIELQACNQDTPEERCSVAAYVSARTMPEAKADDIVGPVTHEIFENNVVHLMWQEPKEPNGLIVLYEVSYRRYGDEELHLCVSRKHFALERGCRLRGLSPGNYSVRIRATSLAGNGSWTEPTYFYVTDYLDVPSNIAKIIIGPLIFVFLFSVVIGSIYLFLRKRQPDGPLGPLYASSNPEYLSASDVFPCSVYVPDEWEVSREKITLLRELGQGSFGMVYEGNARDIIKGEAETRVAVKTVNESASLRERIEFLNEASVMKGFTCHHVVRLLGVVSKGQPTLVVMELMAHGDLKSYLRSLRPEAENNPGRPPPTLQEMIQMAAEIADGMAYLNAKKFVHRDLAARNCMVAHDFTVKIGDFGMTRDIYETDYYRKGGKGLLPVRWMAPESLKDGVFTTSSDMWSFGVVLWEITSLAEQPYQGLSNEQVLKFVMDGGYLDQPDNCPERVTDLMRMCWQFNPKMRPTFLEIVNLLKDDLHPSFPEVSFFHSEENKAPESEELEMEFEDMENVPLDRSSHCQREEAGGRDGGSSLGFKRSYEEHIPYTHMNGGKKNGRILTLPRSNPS

On to `Cn1cc(-n2cnc3c(NCc4nc5cc(Cl)c(Cl)cc5[nH]4)nc(N4CCOCC4)nc32)cn1`, for which the % of control in test [1] is -1.19%.
Turning to `CNC(=O)Nc1ccc(-c2nc(N3CC4CCC(C3)O4)c3cnn(C4CCC5(CC4)OCCO5)c3n2)cc1`, the % of control at Insulin receptor came out at 84%.
`O[C@H]1CC[C@H](Nc2ncc3nc(Nc4c(F)cc(F)cc4F)n([C@H]4CCOC4)c3n2)CC1`: in test [2], the % of control is 100%.
Regarding `Nc1cnc(N2CCc3cc(S(=O)(=O)Nc4c(F)cc(Cl)cc4F)cc(N4CCCC4=O)c32)nc1` [TP-020n], the % of control in test [3] was 89%.
